What is called melting point is the temperature, or range, at which the solid turns liquid. For `CC(=O)Nc1nc(-c2cc(C)cc(C)c2)c(-c2ccnc(NCc3ccccc3)c2)s1` [Example Compound 10, N-[5-(2-benzylamino-4-pyridyl)-4-(3,5-dimethylphenyl)-1,3-thiazol-2-yl]acetamide], the melting point lay within 217 to 219 °C.

In turn, `CNc1nc(-c2ccc(OC)cc2)c(-c2ccnc(NC(=O)c3ccccc3)c2)s1` [Example Compound 11, N-[4-[4-(4-methoxyphenyl)-2-methylamino-1,3-thiazol-5-yl]-2-pyridyl]benzamide] yielded a melting point of 237 to 241 °C.

On to `Cc1cccc(-c2nc(N)sc2-c2ccnc(NC(=O)c3ccccc3)c2)c1` [Example Compound 12, N-[4-[2-amino-4-(3-methylphenyl)-1,3-thiazol-5-yl]-2-pyridyl]benzamide], for which the melting point is 216 to 217 °C.

The molecule `COc1ccc(-c2nc(C)sc2-c2ccnc(NC(=O)Cc3ccccc3)c2)cc1` [Example Compound 15-1, N-[4-[4-(4-methoxyphenyl)-2-methyl-1,3-thiazol-5-yl]-2-pyridyl]phenylacetamide] came in with a melting point of 118 to 120 °C.

The molecule `CCCCc1nc(-c2cccc(C)c2)c(-c2ccnc(NC(=O)Cc3ccccc3)c2)s1` [Example Compound 15-4, N-[4-[2-butyl-4-(3-methylphenyl)-1,3-thiazol-5-yl]-2-pyridyl]phenylacetamide] had a melting point of 92 to 93 °C.

`Cc1cccc(-c2nc(-c3ccccc3Cl)sc2-c2ccnc(NC(=O)Cc3ccccc3)c2)c1` [Example Compound 15-5, N-(4-[2-(2-chlorophenyl)-4-(3-methylphenyl)-1,3-thiazol-5-yl]-2-pyridyl]phenylacetamide]: the melting point is 141 to 142 °C.

`CSc1ccc(-c2nc(-c3cccc(C)c3)c(-c3ccnc(NC(=O)Cc4ccccc4)c3)s2)cc1` [Example Compound 15-6, N-[4-[4-(3-methylphenyl)-2-(4-methylthiophenyl)-1,3-thiazol-5-yl]-2-pyridyl]phenylacetamide] registered a melting point of 205 to 206 °C.

The molecule `CCc1nc(-c2cccc(C)c2)c(-c2ccnc(NC(=O)CCc3ccc(OC)cc3)c2)s1` [Example Compound 16-3, N-[4-[2-ethyl-4-(3-methylphenyl)-1,3-thiazol-5-yl]-2-pyridyl]-3-(4-methoxyphenyl)propionamide] yielded a melting point of 137 to 138 °C.

On to `CCc1nc(-c2cccc(C)c2)c(-c2ccnc(NC(=O)CCc3ccc(F)cc3)c2)s1` [Example Compound 16-4, N-[4-[2-ethyl-4-(3-methylphenyl)-1,3-thiazol-5-yl]-2-pyridyl]-3-(4-fluorophenyl)propionamide], for which the melting point was 116 to 117 °C.

As to `CCc1nc(-c2cccc(C)c2)c(-c2ccnc(NC(=O)CCCc3ccccc3)c2)s1` [Example Compound 16-5, N-[4-[2-ethyl-4-(3-methylphenyl)-1,3-thiazol-5-yl]-2-pyridyl]-4-phenylbutyramide], the melting point lay within 92 to 93 °C.

As for `CCc1nc(-c2cccc(C)c2)c(-c2ccnc(NC(=O)CCCCc3ccccc3)c2)s1` [Example Compound 16-6, N-[4-[2-ethyl-4-(3-methylphenyl)-1,3-thiazol-5-yl]-2-pyridyl]-5-phenylvaleramide], the melting point is 86 to 87 °C.

`CCCc1nc(-c2cccc(C)c2)c(-c2ccnc(NC(=O)CCc3ccccc3)c2)s1` [Example Compound 16-8, N-[4-[4-(3-methylphenyl)-2-propyl-1,3-thiazol-5-yl]-2-pyridyl]-3-phenylpropionamide] registered a melting point of 103 to 104 °C.

`CCCCc1nc(-c2cccc(C)c2)c(-c2ccnc(NC(=O)CCc3ccccc3)c2)s1` [Example Compound 16-10, N-[4-[2-butyl-4-(3-methylphenyl)-1,3-thiazol-5-yl]-2-pyridyl]-3-phenylpropionamide] showed a melting point of 77 to 78 °C.

Molecule `Cc1cccc(-c2nc(-c3ccc(F)cc3)sc2-c2ccnc(NC(=O)c3ccccc3)c2)c1` [Example Compound 16-11, N-[4-[2-(4-fluorophenyl)-4-(3-methylphenyl)-1,3-thiazol-5-yl]-2-pyridyl]benzamide] came in with a melting point of 126 to 128 °C.

As to `Cc1cccc(-c2nc(-c3ccc(F)cc3)sc2-c2ccnc(NC(=O)CCc3ccccc3)c2)c1` [Example Compound 16-12, N-[4-[2-(4-fluorophenyl)-4-(3-methylphenyl)-1,3-thiazol-5-yl]-2-pyridyl]-3-phenylpropionamide], the melting point lay in the range of 169 to 171 °C.

Molecule `Cc1cccc(-c2nc(-c3ccccc3Cl)sc2-c2ccnc(NC(=O)c3ccccc3)c2)c1` [Example Compound 16-13, N-(4-[2-(2-chlorophenyl)-4-(3-methylphenyl)-1,3-thiazol-5-yl]-2-pyridyl]benzamide] had a melting point of 138 to 140 °C.

Molecule `Cc1cccc(-c2nc(-c3ccccc3Cl)sc2-c2ccnc(NC(=O)CCc3ccccc3)c2)c1` [Example Compound 16-14, N-[4-[2-(2-chlorophenyl)-4-(3-methylphenyl)-1,3-thiazol-5-yl]-2-pyridyl]-3-phenylpropionamide] came in with a melting point of 156 to 158 °C.

Molecule `CSc1ccc(-c2nc(-c3cccc(C)c3)c(-c3ccnc(NC(=O)c4ccccc4)c3)s2)cc1` [Example Compound 16-15, N-[4-[4-(3-methylphenyl)-2-(4-methylthiophenyl)-1,3-thiazol-5-yl]-2-pyridyl]benzamide] returned a melting point of 180 to 182 °C.

As to `CSc1ccc(-c2nc(-c3cccc(C)c3)c(-c3ccnc(NC(=O)CCc4ccccc4)c3)s2)cc1` [Example Compound 16-16, N-[4-[4-(3-methylphenyl)-2-(4-methylthiophenyl)-1,3-thiazol-5-yl]-2-pyridyl]-3-phenylpropionamide], the melting point is 174 to 175 °C.

For the molecule `CSc1ccc(-c2nc(-c3cccc(C)c3)c(-c3ccnc(NC(=O)c4cccs4)c3)s2)cc1` [Example Compound 16-17, N-[4-[4-(3-methylphenyl)-2-(4-methylthiophenyl)-1,3-thiazol-5-yl]-2-pyridyl]-2-thiophenecarboxamide], the melting point was 145 to 147 °C.

In turn, `CSc1ccc(-c2nc(-c3cccc(C)c3)c(-c3ccnc(NC(=O)c4ccc5ccccc5c4)c3)s2)cc1` [Example Compound 16-18, N-[4-[4-(3-methylphenyl)-2-(4-methylthiophenyl)-1,3-thiazol-5-yl]-2-pyridyl]-2-naphthamide] returned a melting point of 184 to 186 °C.

Turning to `COc1ccc(-c2nc(C)sc2-c2ccnc(NCc3ccccc3)c2)cc1` [Example Compound 19-1, N-benzyl-N-[4-[4-(4-methoxyphenyl)-2-methyl-1,3-thiazol-5-yl]-2-pyridyl]amine], the melting point fell in the range of 132 to 133 °C.

As to `Cc1cccc(-c2nc(-c3ccc(F)cc3)sc2-c2ccnc(NCc3ccccc3)c2)c1` [Example Compound 19-11, N-benzyl-N-[4-[2-(4-fluorophenyl)-4-(3-methylphenyl)-1,3-thiazol-5-yl]-2-pyridyl]amine], the melting point lay in the range of 143 to 146 °C.

The molecule `Cc1cccc(-c2nc(-c3ccc(F)cc3)sc2-c2ccnc(NCCc3ccccc3)c2)c1` [Example Compound 19-12, N-[4-[2-(4-fluorophenyl)-4-(3-methylphenyl)-1,3-thiazol-5-yl]-2-pyridyl]-N-(2-phenylethyl)amine] showed a melting point of 97 to 98 °C.

As to `Cc1cccc(-c2nc(-c3ccc(F)cc3)sc2-c2ccnc(NCCCc3ccccc3)c2)c1` [Example Compound 19-13, N-[4-[2-(4-fluorophenyl)-4-(3-methylphenyl)-1,3-thiazol-5-yl]-2-pyridyl]-N-(3-phenylpropyl)amine], the melting point is 110 to 112 °C.

Regarding `Cc1cccc(-c2nc(-c3ccccc3Cl)sc2-c2ccnc(NCc3ccccc3)c2)c1` [Example Compound 19-14, N-benzyl-N-[4-[2-(2-chlorophenyl)-4-(3-methylphenyl)-1,3-thiazol-5-yl]-2-pyridyl]amine], the melting point was 84 to 86 °C.

With `Cc1cccc(-c2nc(-c3ccccc3Cl)sc2-c2ccnc(NCCc3ccccc3)c2)c1` [Example Compound 19-15, N-[4-[2-(2-chlorophenyl)-4-(3-methylphenyl)-1,3-thiazol-5-yl]-2-pyridyl]-N-(2-phenylethyl)amine], the melting point was 113 to 114 °C.

With `Cc1cccc(-c2nc(-c3ccccc3Cl)sc2-c2ccnc(NCCCc3ccccc3)c2)c1` [Example Compound 19-16, N-[4-[2-(2-chlorophenyl)-4-(3-methylphenyl)-1,3-thiazol-5-yl]-2-pyridyl]-N-(3-phenylpropyl)amine], the melting point lay in the range of 101 to 102 °C.

Consider `CSc1ccc(-c2nc(-c3cccc(C)c3)c(-c3ccnc(NCc4ccccc4)c3)s2)cc1` [Example Compound 19-17, N-benzyl-N-[4-[4-(3-methylphenyl)-2-(4-methylthiophenyl)-1,3-thiazol-5-yl]-2-pyridyl]amine], for which the melting point lay within 134 to 136 °C.

The molecule `CSc1ccc(-c2nc(-c3cccc(C)c3)c(-c3ccnc(NCCc4ccccc4)c3)s2)cc1` [Example Compound 19-18, N-[4-[4-(3-methylphenyl)-2-(4-methylthiophenyl)-1,3-thiazol-5-yl]-2-pyridyl]-N-(2-phenylethyl)amine] had a melting point of 137 to 139 °C.

Regarding `CSc1ccc(-c2nc(-c3cccc(C)c3)c(-c3ccnc(NCCCc4ccccc4)c3)s2)cc1` [Example Compound 19-19, N-[4-[4-(3-methylphenyl)-2-(4-methylthiophenyl)-1,3-thiazol-5-yl]-2-pyridyl]-N-(3-phenylpropyl)amine], the melting point lay in the range of 106 to 107 °C.

`CSc1ccc(-c2nc(-c3cccc(C)c3)c(-c3ccnc(NCc4ccc5ccccc5c4)c3)s2)cc1` [Example Compound 19-20, N-[4-[4-(3-methylphenyl)-2-(4-methylthiophenyl)-1,3-thiazol-5-yl]-2-pyridyl]-N-(2-naphthylmethyl)amine]: the melting point was in the range of 144 to 145 °C.

`Cc1cccc(-c2nc(-c3ccc(S(C)(=O)=O)cc3)sc2-c2ccnc(NC(=O)CCc3ccccc3)c2)c1` [Example Compound 21-2, N-[4-[4-(3-methylphenyl)-2-(4-methylsulfonylphenyl)-1,3-thiazol-5-yl]-2-pyridyl]-3-phenylpropionamide] came in with a melting point of 236 to 237 °C.

(Values after patent US7276527B2, “5-pyridyl-1,3-azole compounds, process for producing the same and use thereof” (Takeda Pharmaceutical Company Limited, priority 1999, dated 2007).)
